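Exposure lasted 48 hours, with cells grown in 96-well plates and compounds tested at five concentrations. GI50 marks 50% less growth.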 Calls of active or inactive are those of the source. Rule as the data show it: active = GI50 up to about 1.1 µM and inactive = higher.
Tests used:
Assay in all cases: NCI anticancer screen, dose series, 48 h
A498 = tested on: A498
CCRF-CEM = tested on: CCRF-CEM
EKVX = tested on: EKVX
HCC 2998 = tested on: HCC 2998
HOP-62 = tested on: HOP-62
HT-29 = tested on: HT-29
IGROV-1 = tested on: IGROV-1
MOLT-4 = tested on: MOLT-4
Malme-3M = tested on: Malme-3M
NCI-H226 = tested on: NCI-H226
OVCAR-4 = tested on: OVCAR-4
OVCAR-8 = tested on: OVCAR-8
RPMI-8226 = tested on: RPMI-8226
SF-268 = tested on: SF-268
SR = tested on: SR
TK-10 = tested on: TK-10
UACC-62 = tested on: UACC-62
MDA-MB-435 = tested on: MDA-MB-435
MCF7 = tested on: MCF7
Hs-578T = tested on: Hs-578T

Compound | GI50 (A498) | GI50 (CCRF-CEM) | GI50 (EKVX) | GI50 (HCC 2998) | GI50 (HOP-62) | GI50 (HT-29) | GI50 (IGROV-1) | GI50 (MOLT-4) | GI50 (Malme-3M) | GI50 (NCI-H226) | GI50 (OVCAR-4) | GI50 (OVCAR-8) | GI50 (RPMI-8226) | GI50 (SF-268) | GI50 (SR) | GI50 (TK-10) | GI50 (UACC-62) | GI50 (MDA-MB-435) | GI50 (MCF7) | GI50 (Hs-578T)
N#CN=C(NCc1ccccc1)NCc1ccccc1 | > 100 µM (inactive) | > 100 µM (inactive) | > 100 µM (inactive) | > 100 µM (inactive) | > 100 µM (inactive) | > 100 µM (inactive) | > 100 µM (inactive) | > 100 µM (inactive) | > 100 µM (inactive) | > 100 µM (inactive) | > 100 µM (inactive) | > 100 µM (inactive) | > 100 µM (inactive) | 18.2 µM (inactive) | 27.9 µM (inactive) | > 100 µM (inactive) | > 100 µM (inactive) | – | – | –
C=C(CC(NC(=O)c1ccc(C(CC)Cc2cnc3nc(N)nc(N)c3n2)cc1)C(=O)O)C(=O)O (stereo not given) | 0.632 µM (active) | 0.01 µM (active) | 52.7 µM (inactive) | 0.239 µM (active) | 0.03 µM (active) | 0.0356 µM (active) | 0.0274 µM (active) | 0.0136 µM (active) | 0.35 µM (active) | 0.0875 µM (active) | 0.246 µM (active) | 0.0217 µM (active) | 0.029 µM (active) | 0.0731 µM (active) | 0.00316 µM (active) | 0.0719 µM (active) | 0.163 µM (active) | 0.0369 µM (active) | – | –
CCOC(=O)C12C(C(=O)OC)=C(C)N(NC(=O)Nc3ccccc3)C1(N)N(NC(=O)Nc1ccccc1)C(C)=C2C(=O)OC (stereo not given) | 30.1 µM (inactive) | 23.7 µM (inactive) | 43.5 µM (inactive) | 25.2 µM (inactive) | 20.5 µM (inactive) | 24.5 µM (inactive) | 41.2 µM (inactive) | 17.9 µM (inactive) | 21.6 µM (inactive) | > 100 µM (inactive) | 39.8 µM (inactive) | 27.7 µM (inactive) | 25.9 µM (inactive) | 31.3 µM (inactive) | 22 µM (inactive) | 36.1 µM (inactive) | 18 µM (inactive) | – | – | –
CC1(C)COC(c2cccc(C3=NC(C)(C)CO3)c2)=N1 | – | – | > 100 µM (inactive) | > 100 µM (inactive) | > 100 µM (inactive) | > 100 µM (inactive) | > 100 µM (inactive) | > 100 µM (inactive) | > 100 µM (inactive) | > 100 µM (inactive) | 83.9 µM (inactive) | > 100 µM (inactive) | > 100 µM (inactive) | > 100 µM (inactive) | > 100 µM (inactive) | > 100 µM (inactive) | 64.3 µM (inactive) | > 100 µM (inactive) | > 100 µM (inactive) | –
O=C1c2ccccc2C(=O)N1/N=C\c1ccc(Br)cc1 | > 10 µM (inactive) | > 10 µM (inactive) | > 10 µM (inactive) | > 10 µM (inactive) | > 10 µM (inactive) | > 10 µM (inactive) | > 10 µM (inactive) | > 10 µM (inactive) | > 10 µM (inactive) | > 10 µM (inactive) | > 10 µM (inactive) | > 10 µM (inactive) | > 10 µM (inactive) | > 10 µM (inactive) | > 10 µM (inactive) | > 10 µM (inactive) | > 10 µM (inactive) | – | – | –
CC(C)N(C(=O)C12C3C4C5(C#N)C3C1(I)C5C42I)C(C)C (stereo not given) | > 100 µM (inactive) | > 44.3 µM (inactive) | > 100 µM (inactive) | > 100 µM (inactive) | > 100 µM (inactive) | > 73.8 µM (inactive) | > 100 µM (inactive) | > 100 µM (inactive) | > 100 µM (inactive) | > 100 µM (inactive) | > 45.5 µM (inactive) | > 100 µM (inactive) | > 49.8 µM (inactive) | > 100 µM (inactive) | 37.8 µM (inactive) | > 100 µM (inactive) | > 100 µM (inactive) | – | – | –
CC(C)(CO)NC(=O)c1cccs1 | – | > 100 µM (inactive) | > 100 µM (inactive) | > 100 µM (inactive) | > 100 µM (inactive) | > 100 µM (inactive) | > 100 µM (inactive) | > 100 µM (inactive) | > 100 µM (inactive) | – | > 100 µM (inactive) | > 100 µM (inactive) | > 100 µM (inactive) | > 100 µM (inactive) | > 100 µM (inactive) | > 100 µM (inactive) | > 100 µM (inactive) | > 100 µM (inactive) | > 100 µM (inactive) | –
CN(C)CC(C)(C)C(=O)/C=C/c1ccc(/C=C/C(=O)C(C)(C)CN(C)C)cc1 | 1.9 µM (inactive) | 1.05 µM (active) | 1.45 µM (inactive) | 1.66 µM (inactive) | 2.14 µM (inactive) | 0.51 µM (active) | 1.71 µM (inactive) | 0.519 µM (active) | 1.87 µM (inactive) | 2.23 µM (inactive) | 1.02 µM (active) | 2.39 µM (inactive) | 1.97 µM (inactive) | 1.35 µM (inactive) | 2.28 µM (inactive) | 1.64 µM (inactive) | 1.74 µM (inactive) | – | – | –
O=C(/N=C1\SCCN1C(=O)C(C(F)(F)F)C(F)(F)F)C(C(F)(F)F)C(F)(F)F | > 100 µM (inactive) | > 100 µM (inactive) | > 100 µM (inactive) | > 100 µM (inactive) | > 100 µM (inactive) | > 100 µM (inactive) | > 100 µM (inactive) | > 100 µM (inactive) | > 100 µM (inactive) | > 100 µM (inactive) | > 100 µM (inactive) | > 100 µM (inactive) | > 100 µM (inactive) | – | > 100 µM (inactive) | > 100 µM (inactive) | – | > 100 µM (inactive) | > 100 µM (inactive) | –
COC(=O)[C@@]12C(=O)CCC(=O)C1C1C(=CC2C)O[C@@H]2OC3(CCCCC3)O[C@H]12 (stereo not given in full) | > 100 µM (inactive) | 29.9 µM (inactive) | 99.8 µM (inactive) | > 100 µM (inactive) | > 100 µM (inactive) | 47.6 µM (inactive) | > 94.6 µM (inactive) | 27.4 µM (inactive) | > 100 µM (inactive) | > 100 µM (inactive) | 59.2 µM (inactive) | 42.2 µM (inactive) | 19 µM (inactive) | > 91.2 µM (inactive) | 25.9 µM (inactive) | > 100 µM (inactive) | > 88.7 µM (inactive) | – | – | –
Cc1ccc(C[P+]2(c3ccccc3)CCCCC2)cc1.[O-][Cl+3]([O-])([O-])[O-] | > 100 µM (inactive) | 38 µM (inactive) | 43.9 µM (inactive) | 21 µM (inactive) | 99.8 µM (inactive) | 21.1 µM (inactive) | 21.3 µM (inactive) | 33 µM (inactive) | 25.5 µM (inactive) | 48.1 µM (inactive) | 41.4 µM (inactive) | 20.6 µM (inactive) | 7.43 µM (inactive) | – | 23.1 µM (inactive) | 51.2 µM (inactive) | 23 µM (inactive) | – | – | –
S=C=Nc1ccc(CSc2nc3ccccc3[nH]2)cc1 | 23 µM (inactive) | 29.5 µM (inactive) | 20 µM (inactive) | 18.1 µM (inactive) | 17.5 µM (inactive) | 18.4 µM (inactive) | 18.2 µM (inactive) | 23.7 µM (inactive) | 17.6 µM (inactive) | – | 17.3 µM (inactive) | 17.8 µM (inactive) | 23.2 µM (inactive) | 17 µM (inactive) | 20.7 µM (inactive) | 20.1 µM (inactive) | 15.8 µM (inactive) | 17.5 µM (inactive) | – | 41.6 µM (inactive)
CC(=O)O[C@H]1CCC2[C@@H]3CCC4Nc5oncc5C[C@]4(C)C3CC[C@@]21C (stereo not given in full) | 4.62 µM (inactive) | 3.67 µM (inactive) | – | > 10 µM (inactive) | > 10 µM (inactive) | > 10 µM (inactive) | > 10 µM (inactive) | 3.92 µM (inactive) | > 10 µM (inactive) | > 10 µM (inactive) | > 10 µM (inactive) | > 10 µM (inactive) | > 10 µM (inactive) | > 10 µM (inactive) | > 10 µM (inactive) | > 10 µM (inactive) | – | > 10 µM (inactive) | 8.55 µM (inactive) | –
O=C(COc1ccc(OCC(=O)N2C(=O)CN(c3ccc(Cl)cc3)C2=S)cc1)N1C(=O)CN(c2ccc(Cl)cc2)C1=S | 22.1 µM (inactive) | – | 6.62 µM (inactive) | 21.7 µM (inactive) | – | 31.4 µM (inactive) | 26.6 µM (inactive) | 33.7 µM (inactive) | 41.2 µM (inactive) | 23.9 µM (inactive) | 25.9 µM (inactive) | – | 21.2 µM (inactive) | 27.2 µM (inactive) | – | 24.4 µM (inactive) | 16.5 µM (inactive) | 31.2 µM (inactive) | 34 µM (inactive) | –
CCSc1[nH]c(Nc2nc(-c3ccccc3)n(-c3ccccc3)n2)c(C(N)=O)c1C(N)=O | – | > 10 µM (inactive) | > 10 µM (inactive) | > 10 µM (inactive) | > 10 µM (inactive) | > 10 µM (inactive) | > 10 µM (inactive) | > 10 µM (inactive) | > 10 µM (inactive) | – | 5.28 µM (inactive) | 6.64 µM (inactive) | > 10 µM (inactive) | > 10 µM (inactive) | > 10 µM (inactive) | > 10 µM (inactive) | > 10 µM (inactive) | > 10 µM (inactive) | > 10 µM (inactive) | –
Cc1ccc(N2C(=O)CS/C2=C(\C#N)c2nc3ccccc3[nH]2)cc1 | > 100 µM (inactive) | > 100 µM (inactive) | > 100 µM (inactive) | > 100 µM (inactive) | > 100 µM (inactive) | – | > 100 µM (inactive) | > 100 µM (inactive) | > 100 µM (inactive) | > 100 µM (inactive) | > 100 µM (inactive) | > 100 µM (inactive) | > 100 µM (inactive) | > 100 µM (inactive) | > 100 µM (inactive) | > 100 µM (inactive) | 16.1 µM (inactive) | – | – | –
